From ChEMBL document CHEMBL5046234, “Discovery of novel TrkA allosteric inhibitors: Structure-based virtual screening, biological evaluation and preliminary SAR studies” (Eur J Med Chem, 2022)
Blank lines part the entries; values can stand above or below the compound they belong to.

Key:
[1] = system: BaF3; experiment: Antiproliferative activity against mouse BaF3 cells expressing CD74 fused TRKA assessed as cell growth inhibition incubated for 72 hrs by CCK8 assay; format: functional, cell-based; conditions: BaF3, 72 h
[2] = target: BDNF/NT-3 growth factors receptor (Homo sapiens, UniProt Q16620); experiment: Inhibition of TRKB (unknown origin) by PathHunter Enzyme Fragment Complementation assay
[3] = target: High affinity nerve growth factor receptor (Homo sapiens) (UniProt P04629); experiment: Inhibition of CD74 fused TRKA (unknown origin) expressed in mouse BaF3 cells assessed as inhibition of ERK phosphorylation by western blot analysis; format: cell-based
[4] = target: High affinity nerve growth factor receptor (Homo sapiens) (UniProt P04629); experiment: Inhibition of CD74 fused TRKA (unknown origin) expressed in mouse BaF3 cells assessed as inhibition of PLCgamma1 phosphorylation by western blot analysis; format: cell-based; conditions: dose 0.08-50 µM
[5] = system: BaF3; experiment: Antiproliferative activity against mouse BaF3 cells expressing MPRIP fused TRKA assessed as cell growth inhibition incubated for 72 hrs by CCK8 assay; format: functional, cell-based; conditions: BaF3, 72 h
[6] = target: High affinity nerve growth factor receptor (Homo sapiens) (UniProt P04629); experiment: Inhibition of CD74 fused TRKA (unknown origin) expressed in mouse BaF3 cells assessed as inhibition of AKT phosphorylation by western blot analysis; format: cell-based; conditions: dose 0.08-50 µM
[7] = system: BaF3; experiment: Antiproliferative activity against mouse BaF3 cells expressing QKI fused TRKB assessed as cell growth inhibition incubated for 72 hrs by CCK8 assay; format: functional, cell-based; conditions: BaF3, 72 h
[8] = target: High affinity nerve growth factor receptor (Homo sapiens) (UniProt P04629); experiment: Inhibition of CD74 fused TRKA (unknown origin) autophosphorylation expressed in mouse BaF3 cells by western blot analysis; format: cell-based; conditions: dose 0.08-50 µM
[9] = system: BaF3; experiment: Antiproliferative activity against mouse BaF3 cells expressing EML4 fused TRKC assessed as cell growth inhibition incubated for 72 hrs by CCK8 assay; format: functional, cell-based; conditions: BaF3, 72 h
[10] = system: BaF3; experiment: Antiproliferative activity against mouse BaF3 cells assessed as cell growth inhibition incubated for 72 hrs by CCK8 assay; format: functional, cell-based; conditions: BaF3, 72 h

Sequence of High affinity nerve growth factor receptor (Homo sapiens) (P04629 33-796 limits assumed): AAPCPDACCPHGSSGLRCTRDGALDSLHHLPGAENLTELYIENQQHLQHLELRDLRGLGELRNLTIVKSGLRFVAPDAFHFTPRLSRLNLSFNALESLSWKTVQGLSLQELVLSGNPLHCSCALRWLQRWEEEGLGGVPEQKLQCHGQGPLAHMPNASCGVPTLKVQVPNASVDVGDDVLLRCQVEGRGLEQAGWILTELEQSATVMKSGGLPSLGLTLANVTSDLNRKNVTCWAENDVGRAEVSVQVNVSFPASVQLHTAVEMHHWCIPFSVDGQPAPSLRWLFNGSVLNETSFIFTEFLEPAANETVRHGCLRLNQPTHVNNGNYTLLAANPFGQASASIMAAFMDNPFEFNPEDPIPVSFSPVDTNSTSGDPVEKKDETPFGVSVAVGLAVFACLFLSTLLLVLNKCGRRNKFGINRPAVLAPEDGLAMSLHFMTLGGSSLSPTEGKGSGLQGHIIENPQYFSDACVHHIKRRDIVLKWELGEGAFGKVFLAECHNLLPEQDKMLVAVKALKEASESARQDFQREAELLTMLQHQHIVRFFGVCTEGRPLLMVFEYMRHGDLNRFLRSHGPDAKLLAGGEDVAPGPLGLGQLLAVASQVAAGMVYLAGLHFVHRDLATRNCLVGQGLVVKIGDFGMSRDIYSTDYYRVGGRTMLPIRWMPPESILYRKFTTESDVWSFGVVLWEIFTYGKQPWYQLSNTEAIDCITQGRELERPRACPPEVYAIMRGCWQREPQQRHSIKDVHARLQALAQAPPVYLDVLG
Sequence of BDNF/NT-3 growth factors receptor (Q16620 whole entry, the tested form may be a part): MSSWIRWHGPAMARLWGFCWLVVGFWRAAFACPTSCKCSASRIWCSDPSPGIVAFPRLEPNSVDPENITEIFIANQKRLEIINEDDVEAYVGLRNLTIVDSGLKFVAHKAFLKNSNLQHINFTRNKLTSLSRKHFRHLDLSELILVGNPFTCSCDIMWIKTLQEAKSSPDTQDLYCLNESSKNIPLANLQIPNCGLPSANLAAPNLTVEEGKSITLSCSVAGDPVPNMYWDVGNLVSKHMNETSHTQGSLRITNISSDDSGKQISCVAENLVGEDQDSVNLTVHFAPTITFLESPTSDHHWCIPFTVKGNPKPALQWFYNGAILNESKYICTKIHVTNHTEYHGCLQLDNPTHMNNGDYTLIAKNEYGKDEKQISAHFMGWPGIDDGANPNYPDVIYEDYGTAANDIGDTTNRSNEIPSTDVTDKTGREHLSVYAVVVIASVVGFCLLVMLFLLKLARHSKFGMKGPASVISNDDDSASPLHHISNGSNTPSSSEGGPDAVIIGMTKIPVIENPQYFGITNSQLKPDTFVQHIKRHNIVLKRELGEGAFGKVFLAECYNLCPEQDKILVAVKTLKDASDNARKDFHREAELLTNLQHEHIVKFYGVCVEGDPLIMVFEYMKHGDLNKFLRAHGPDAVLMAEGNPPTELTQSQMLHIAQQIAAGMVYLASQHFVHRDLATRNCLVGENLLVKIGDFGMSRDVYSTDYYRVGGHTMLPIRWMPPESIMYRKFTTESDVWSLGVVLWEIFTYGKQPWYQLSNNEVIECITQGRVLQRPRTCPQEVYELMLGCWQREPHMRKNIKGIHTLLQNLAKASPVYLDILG

SMILES: CN1CCN(c2ccc(NC(=O)c3ccc(Cl)c(N4CCCC4=O)c3)cn2)CC1
IC50 [1]: 1.55 µM

SMILES: Cc1ncc(NC(=O)NC2c3ccccc3-c3ccccc32)c(-c2ccccc2)n1
IC50 [2]: 81 µM

SMILES: CN1CCN(c2ccc(NC(=O)c3cc(N4CCCC4=O)c(Cl)cc3Cl)cn2)CC1
IC50 [1]: 1.83 µM

SMILES: CN1CCN(c2cc(-c3ccccc3)c(NC(=O)c3cc(N4CCCC4=O)c(Cl)cc3Cl)cn2)CC1
IC50 [1]: > 10 µM

The remaining lines, values ahead:

IC50 [1]: 2.91 µM | inhibition [3]: Dose-Dependent Effect | inhibition [4]: Dose-Dependent Effect | IC50 [5]: 3.32 µM | inhibition [6]: Dose-Dependent Effect | IC50 [7]: 6.17 µM | inhibition [8]: Dose-Dependent Effect | IC50 [9]: > 10 µM | IC50 [10]: > 10 µM
SMILES: Cc1ccc(C(=O)Nc2ccc(N3CCN(C4CCCC4)C3=O)nc2)cc1N1CCCC1=O

IC50 [1]: 1.99 µM
SMILES: Cc1ccc(C(=O)Nc2ccc(N3CCN(C)CC3)nc2)cc1N1CCCC1=O

IC50 [1]: 7.23 µM
SMILES: Cc1ccc(C(=O)Nc2ccc(N3CCCC3=O)nc2)cc1N1CCCC1=O
